This note sets out measurements from US4692443A, “3-bicyclicpyridinium-methyl cephalosporins” (Eli Lilly and Company, priority 1984, dated 1987).

For data set [1], the system named is Staph. aureus V41. In words: standard in vitro agar dilution assay (MIC). The data set is classed as cell-based. The note with it: Staphylococcus aureus; Staph. aureus strain V41; read-out: Agar Dilution MIC. For orientation: In agar dilution the substance is mixed into plates at graded concentrations.
Data set [2] has as its system Staph. aureus X400. In words: standard in vitro agar dilution assay (MIC). The data set is classed as cell-based. As to conditions: Staphylococcus aureus; Staph. aureus strain X400.
Data set [3] has as its system Staph. aureus S13E. The data set is described as follows: microbe, parasite or virus in culture. The data set is classed as cell-based. As to conditions: Staphylococcus aureus, read-out: Agar Dilution MIC.
In data set [4] the test system is Staph. epi EPI1. In words: standard in vitro agar dilution assay (MIC). The data set is classed as cell-based. As to conditions: Staph. epi strain EPI1.
The subject of data set [5] is Staph. epi 222. The data set is described as follows: standard in vitro agar dilution assay (MIC). The data set is classed as cell-based. As to conditions: Staph. epi strain 222.
For data set [6], the system named is Strep. A C203. The data set is described as follows: standard in vitro agar dilution assay (MIC). In kind it is cell-based. As to conditions: Strep. A strain C203.
The test system of data set [7] is Strep. PN PARK. The data set is described as follows: standard in vitro agar dilution assay (MIC). The note with it: Strep. PN strain PARK. In kind it is cell-based.
For data set [8], the system named is Strep. D X66. The data set is described as follows: standard in vitro agar dilution assay (MIC). The note with it: Strep. D strain X66. The data set is classed as cell-based.
Data set [9] relates to Strep. D 9960. The data set is described as follows: standard in vitro agar dilution assay (MIC). As to conditions: Strep. D strain 9960. In kind it is cell-based.
The subject of data set [10] is H. influ. 76. In words: standard in vitro agar dilution assay (MIC). In kind it is cell-based. The note with it: read-out: Agar Dilution MIC.
For data set [11], the system named is E. coli N10. In words: standard in vitro agar dilution assay (MIC). In kind it is cell-based. The note with it: Escherichia coli, N10, read-out: Agar Dilution MIC.
In data set [12] the test system is E. coli TEM. The data set is described as follows: standard in vitro agar dilution assay (MIC). In kind it is cell-based. The note with it: Escherichia coli; E. coli strain TEM; read-out: Agar Dilution MIC.
The subject of data set [13] is Klebsiella X26. The data set is described as follows: standard in vitro agar dilution assay (MIC). In kind it is cell-based. As to conditions: Klebsiella strain X26; read-out: Agar Dilution MIC.
Data set [14] deals with Klebsiella KAE. In words: standard in vitro agar dilution assay (MIC). In kind it is cell-based. As to conditions: Klebsiella strain KAE; read-out: Agar Dilution MIC.
The subject of data set [15] is Enterobacter aerogenes C32. In words: standard in vitro agar dilution assay (MIC). The data set is classed as cell-based. The note with it: Klebsiella aerogenes.
Data set [16] relates to Enterobacter cloacae EB5. The data set is described as follows: standard in vitro agar dilution assay (MIC). In kind it is cell-based.
Data set [17] has as its system Pseudomonas X528. The data set is described as follows: standard in vitro agar dilution assay (MIC). In kind it is cell-based. The note with it: Pseudomonas strain X528. An excerpt: The antibacterial activity of several representative compounds of the invention has been evaluated in standard in vitro agar dilution assays. The following Table presents typical minimum inhibitory concentrations (MIC's) in μg /ml for exemplary compounds when evaluated against typical Gram + and Gram - microorganism.

The subject of data set [18] is Pseudomonas X239. In words: standard in vitro agar dilution assay (MIC). The note with it: Pseudomonas strain X239. In kind it is cell-based.
The test system of data set [19] is Serratia X99. The data set is described as follows: standard in vitro agar dilution assay (MIC). In kind it is cell-based.
Data set [20] deals with Staph. aureus X1.1. The data set is described as follows: standard in vitro agar dilution assay (MIC). In kind it is cell-based. The note with it: Staphylococcus aureus; Staph. aureus strain X1.1; read-out: Agar Dilution MIC.
The test system of data set [21] is Salmonella X514. The data set is described as follows: standard in vitro agar dilution assay (MIC). The data set is classed as cell-based. As to conditions: Salmonella strain X514; read-out: Agar Dilution MIC.
Data set [22] deals with H. influ. C.L. The data set is described as follows: standard in vitro agar dilution assay (MIC). The data set is classed as cell-based. As to conditions: read-out: Agar Dilution MIC.
The test system of data set [23] is Klebsiella X68. The data set is described as follows: standard in vitro agar dilution assay (MIC). The data set is classed as cell-based.
Data set [24] in a line: Titration (pKa). The data set is classed as physicochemical. The note with it: 66% dimethylformamide in water v/v. The source says:
Titration (66% dimethylformamide in water v/v) pKa at 4.0, 7.4, 10.7.

[25] abbreviates: Enterobacter cloacae, EB5, read-out: Agar Dilution MIC.
Setting [26] is: Serratia, X99, read-out: Agar Dilution MIC.

Each structure is given as a SMILES string. In brackets after ≈: the same amount, converted by molar mass. Read-outs that look alike come from different tables or passages of the source.

Consider `CO/N=C(\C(=O)NC1C(=O)N2C(C(=O)[O-])=C(C[n+]3cccc4oc(N)nc43)CSC12)c1csc(N)n1` (stereo not drawn) [Example 10, syn-7-[2-(2-aminothiazol-4-yl)-2-methoxyiminoacetamido]-3-(2-aminooxazolo[4,5-b]pyridinium-4-ylmethyl)-3-cephem-4-carboxylate], for which the MIC in data set [1] amounted to 4 µg/mL (≈ 7.54 µM); in [2], 32 µg/mL (≈ 60.3 µM); in [3], 4 µg/mL (≈ 7.54 µM); in [4], 2 µg/mL (≈ 3.77 µM); in data set [5], 1 µg/mL (≈ 1.88 µM); in [6], 0.015 µg/mL (≈ 0.0283 µM). Moreover, the MIC is 0.015 µg/mL (≈ 0.0283 µM) in [7]; more than 128 µg/mL in data set [8]; 16 µg/mL (≈ 30.2 µM) in data set [9]; 0.125 µg/mL (≈ 0.236 µM) in [10]; 0.125 µg/mL (≈ 0.236 µM) in data set [11]; 0.03 µg/mL (≈ 0.0565 µM) in [12]. Also, the MIC was 0.03 µg/mL (≈ 0.0565 µM) in data set [13]; 4 µg/mL (≈ 7.54 µM) in data set [14]; 0.125 µg/mL (≈ 0.236 µM) in data set [15] (Enterobacter aerogenes strain C32, read-out: Agar Dilution MIC); 0.25 µg/mL (≈ 0.471 µM) in data set [16] (setting [25]); 4 µg/mL (≈ 7.54 µM) in [17]; 2 µg/mL (≈ 3.77 µM) in [18]. Besides, the MIC in [19] (setting [26]) is 0.125 µg/mL (≈ 0.236 µM).
For the compound `CO/N=C(\C(=O)NC1C(=O)N2C(C(=O)[O-])=C(C[n+]3ccc4nc(C)sc4c3)CSC12)c1csc(N)n1` (stereo not drawn) [Example 16, syn-7-[2-(2-aminothiazol-4-yl)-2-methoxyiminoacetamido]-3-(2-methylthiazolo[5,4-c]pyridinium-5-ylmethyl)-3-cephem-4-carboxylate], the MIC in data set [20] worked out at 1 µg/mL (≈ 1.83 µM); in data set [1], 4 µg/mL (≈ 7.33 µM); in data set [2], 8 µg/mL (≈ 14.7 µM); in [3] it was 4 µg/mL (≈ 7.33 µM); in data set [4] it was 2 µg/mL (≈ 3.67 µM); in [5] it was 1 µg/mL (≈ 1.83 µM). Besides, the MIC in data set [6] was 0.015 µg/mL (≈ 0.0275 µM); in data set [8], more than 128 µg/mL; in [9], 8 µg/mL (≈ 14.7 µM); in [10] (H. influ. strain 76), 0.015 µg/mL (≈ 0.0275 µM); in data set [14] it was 1 µg/mL (≈ 1.83 µM); in data set [16] (setting [25]), 0.125 µg/mL (≈ 0.229 µM). The MIC in data set [21] came to 0.03 µg/mL (≈ 0.055 µM); in data set [17], 8 µg/mL (≈ 14.7 µM); in data set [18] it was 4 µg/mL (≈ 7.33 µM); in [19] (setting [26]) it was 0.125 µg/mL (≈ 0.229 µM).
Turning to `CO/N=C(\C(=O)NC1C(=O)N2C(C(=O)[O-])=C(C[n+]3ccc4nc(C(C)(C)C)sc4c3)CSC12)c1csc(N)n1` (stereo not drawn) [Example 17, syn-7-[2-(2-aminothiazol-4-yl)-2-methoxyiminoacetamido]-3-(2-tert.-butylthiazolo[5,4-c]pyridinium-5-ylmethyl)-3-cephem-4-carboxylate], the MIC worked out at 1 µg/mL (≈ 1.7 µM) in data set [20]; 4 µg/mL (≈ 6.81 µM) in data set [1]; 32 µg/mL (≈ 54.4 µM) in [2]; 8 µg/mL (≈ 13.6 µM) in data set [3]; 4 µg/mL (≈ 6.81 µM) in data set [4]; 1 µg/mL (≈ 1.7 µM) in data set [5]. Also, the MIC in data set [6] was 0.015 µg/mL (≈ 0.0255 µM); in data set [7], 0.015 µg/mL (≈ 0.0255 µM); in data set [8], more than 128 µg/mL; in data set [9], 4 µg/mL (≈ 6.81 µM); in data set [22] it was 0.25 µg/mL (≈ 0.425 µM); in data set [10] it was 0.125 µg/mL (≈ 0.213 µM). Also, the MIC in data set [11] is 0.5 µg/mL (≈ 0.851 µM); in [14] it was 4 µg/mL (≈ 6.81 µM); in data set [23] (Klebsiella, X68, read-out: Agar Dilution MIC) it was 0.5 µg/mL (≈ 0.851 µM); in data set [15] (C32, read-out: Agar Dilution MIC), 0.5 µg/mL (≈ 0.851 µM); in data set [16] (Enterobacter cloacae strain EB5, read-out: Agar Dilution MIC) it was 1 µg/mL (≈ 1.7 µM); in data set [21], 0.5 µg/mL (≈ 0.851 µM). The MIC in [19] (Serratia strain X99, read-out: Agar Dilution MIC) turned out to be 1 µg/mL (≈ 1.7 µM).
On to `CO/N=C(\C(=O)N[C@@H]1C(=O)N2C(C(=O)[O-])=C(C[n+]3cccc4nc(N)sc43)CS[C@H]12)c1csc(N)n1` [Example 15, syn-7-[2-(2-aminothiazol-4-yl)-2-methoxyiminoacetamido]-3-(2-aminothiazolo[5,4-b]pyridinium-4-ylmethyl)-3-cephem-4-carboxylate], for which the MIC in data set [1] came to 2 µg/mL (≈ 3.66 µM); in [3], 4 µg/mL (≈ 7.32 µM); in [4] it was 2 µg/mL (≈ 3.66 µM); in [5], 16 µg/mL (≈ 29.3 µM); in [6] it was 0.015 µg/mL (≈ 0.0274 µM); in data set [9] it was 8 µg/mL (≈ 14.6 µM). Besides, the MIC is 4 µg/mL (≈ 7.32 µM) in data set [23] (Klebsiella strain X68, read-out: Agar Dilution MIC); 1 µg/mL (≈ 1.83 µM) in data set [17]; 2 µg/mL (≈ 3.66 µM) in [18]. The “pKa (second)” value in [24] was 7.4. The “pKa (third)” value in data set [24] worked out at 10.7. Moreover, the pKa in [24] (read-out: pKa (first)) was 4.

By pKa is commonly meant the negative logarithm of the acid dissociation constant.
